This note sets out measurements from PubChem BioAssay AID330 (DTP/NCI, 2004).

Where “and” joins values, the source holds several entries; their conditions need not be identical. Equal entries are not always repeated. Inconclusive results and toxic doses are left out.

The subject of the experiment is P388 leukemia ip, CD2F1 mice, survival T/C. The experiment in a line: NCI In Vivo Anticancer Drug Screen. Data for tumor model P388 Leukemia (intraperitoneal) in CD2F1 (CDF1) mice. To be noted: endpoint: median survival time, higher = longer survival. In outline: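 Mice carrying the transplanted tumor received test compound or vehicle. Survival was recorded in each group, and the value is the treated-group measurement divided by that of the vehicle-treated control group.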

Setting [1] is: dose: 50.0 mg/kg/injection, schedule: Q01DX005 (ip), vehicle: Klucel (hydroxypropylcellulose) (HPC).
[2] abbreviates: dose: 100.0 mg/kg/injection, schedule: Q01DX005 (ip), vehicle: Klucel (hydroxypropylcellulose) (HPC).
Where [3] appears, read: dose: 200.0 mg/kg/injection, schedule: Q01DX005 (ip), vehicle: Klucel (hydroxypropylcellulose) (HPC).
The mark [4] stands for this setting: dose: 50.0 mg/kg/injection, schedule: Q01DX005 (ip), vehicle: saline with Tween-80.
Setting [5] is: dose: 100.0 mg/kg/injection, schedule: Q01DX005 (ip), vehicle: saline with Tween-80.
[6] abbreviates: dose: 30.0 mg/kg/injection, schedule: Q01DX005 (ip), vehicle: saline.
[7] abbreviates: dose: 60.0 mg/kg/injection, schedule: Q01DX005 (ip), vehicle: saline with Tween-80.
Where [8] appears, read: dose: 25.0 mg/kg/injection, schedule: Q04DX003 (ip), vehicle: saline with Tween-80.
The mark [9] stands for this setting: dose: 50.0 mg/kg/injection, schedule: Q01DX009 (ip), vehicle: saline with Tween-80.
The mark [10] stands for this setting: dose: 100.0 mg/kg/injection, schedule: Q01DX009 (ip), vehicle: saline with Tween-80.
[11] abbreviates: dose: 200.0 mg/kg/injection, schedule: Q01DX009 (ip), vehicle: saline with Tween-80.
The mark [12] stands for this setting: dose: 200.0 mg/kg/injection, schedule: Q04DX003 (ip), vehicle: saline with Tween-80.
Setting [13] is: dose: 120.0 mg/kg/injection, schedule: Q01DX005 (ip), vehicle: saline with Tween-80.
The mark [14] stands for this setting: dose: 240.0 mg/kg/injection, schedule: Q01DX005 (ip), vehicle: saline with Tween-80.
Where [15] appears, read: dose: 200.0 mg/kg/injection, schedule: Q01DX005 (ip), vehicle: saline with Tween-80.

`COC1OCCC(n2c(C)cc3c(N)ncnc32)C1O` (stereo not drawn): the T/C reads like this: under setting [1], 101 % of control and 102 % of control; (dose: 60.0 mg/kg/injection, schedule: Q01DX005 (ip), vehicle: Klucel (hydroxypropylcellulose) (HPC)) 100 % of control; under setting [2], 100 % of control and 103 % of control; (dose: 120.0 mg/kg/injection, schedule: Q01DX005 (ip), vehicle: Klucel (hydroxypropylcellulose) (HPC)) 103 % of control; under setting [3], 93 % of control; (dose: 240.0 mg/kg/injection, schedule: Q01DX005 (ip), vehicle: Klucel (hydroxypropylcellulose) (HPC)) 96 % of control.

With `CC(C)[C@](O)(C(=O)OCC1CCN2CC[C@@H](O)C12)[C@H](C)O` (stereo partly drawn), the T/C is, setting by setting: (dose: 40.6 mg/kg/injection, schedule: Q01DX009 (ip), vehicle: saline) 96 % of control; (dose: 81.25 mg/kg/injection, schedule: Q01DX009 (ip), vehicle: saline) 102 % of control; (dose: 162.5 mg/kg/injection, schedule: Q01DX009 (ip), vehicle: saline) 92 % of control and 98 % of control.

For the compound `CCCCCCCCC(O)C#CC(O)CCCCCCCC` (stereo not drawn), the T/C (dose: 12.5 mg/kg/injection, schedule: Q01DX005 (ip), vehicle: saline with Tween-80) is 92 % of control; the T/C (dose: 25.0 mg/kg/injection, schedule: Q01DX005 (ip), vehicle: saline with Tween-80) was 90 % of control; the T/C under setting [4] is 101 % of control and 91 % of control; the T/C under setting [5] was 100 % of control.

For the compound `Cc1cc[n+](Cc2cc3ccccc3nc2Cl)cc1C`, the T/C was 110 % of control (dose: 3.75 mg/kg/injection, schedule: Q01DX005 (ip), vehicle: saline); 93 % of control (dose: 7.5 mg/kg/injection, schedule: Q01DX005 (ip), vehicle: saline); 104 % of control (dose: 15.0 mg/kg/injection, schedule: Q01DX005 (ip), vehicle: saline); 107 % of control under setting [6].

Consider `O=c1[nH]cc(CSc2ncc[nH]2)c(=O)[nH]1`, for which the T/C is, setting by setting: under setting [6], 119 % of control; under setting [7], 119 % of control; (dose: 60.0 mg/kg/injection, schedule: Q01DX005 (ip), vehicle: saline) 124 % of control.

As for `ClCCN(CCCl)c1ccc2c3c(cccc13)-c1ccccc1-2`, the T/C runs as follows: under setting [8], 104 % of control; under setting [9], 154 % of control; under setting [10], 186 % of control; (dose: 132.0 mg/kg/injection, schedule: Q04DX003 (ip), vehicle: saline with Tween-80) 159 % of control; under setting [11], 86 % of control; under setting [12], 177 % of control and 212 % of control. Also, the T/C (dose: 300.0 mg/kg/injection, schedule: Q04DX003 (ip), vehicle: saline with Tween-80) was 177 % of control.

For the compound `O=C(Nc1ccc(Cl)cc1)Nc1nnc(-c2ccc(Cl)cc2Cl)o1`, the T/C runs as follows: under setting [7], 91 % of control; under setting [13], 86 % of control; under setting [14], 97 % of control.

Take `OCCOCCN1CCN(CCCN2c3ccccc3Sc3ccc(C(F)(F)F)cc32)CC1`: the T/C is 114 % of control (dose: 12.5 mg/kg/injection, schedule: Q04DX003 (ip), vehicle: saline) and 117 % of control (dose: 25.0 mg/kg/injection, schedule: Q04DX003 (ip), vehicle: saline).

With `CCN(CC)CCNC1CC(C)CC(C)(C)C1` (stereo not drawn), the T/C by setting is: under setting [4], 103 % of control; under setting [5], 101 % of control.

In the case of `O=C1/C(=C/c2ccccc2[N+](=O)[O-])Cc2ccccc21`, the T/C reads like this: under setting [9], 103 % of control; under setting [10], 94 % of control; under setting [11], 103 % of control; (dose: 400.0 mg/kg/injection, schedule: Q01DX009 (ip), vehicle: saline with Tween-80) 97 % of control.

As to `CCOc1c(N=Nc2ccccc2)c(C)nn1C(=S)S`, the T/C was 101 % of control (dose: 60.0 mg/kg/injection, schedule: Q01DX005 (ip), vehicle: Klucel + Tween-80); 101 % of control (dose: 120.0 mg/kg/injection, schedule: Q01DX005 (ip), vehicle: Klucel + Tween-80); 100 % of control (dose: 240.0 mg/kg/injection, schedule: Q01DX005 (ip), vehicle: Klucel + Tween-80).

For `O=C(O)CC1C=CC2C=CC1C=C2` (stereo not drawn), the T/C was 101 % of control under setting [4], 100 % of control under setting [5] and 99 % of control under setting [15].

Take `S=C(Cl)N1CCN(C(=S)Cl)CC1`: the T/C was 104 % of control (dose: 12.5 mg/kg/injection, schedule: Q01DX009 (ip), vehicle: Klucel (hydroxypropylcellulose) (HPC)); 112 % of control (dose: 25.0 mg/kg/injection, schedule: Q01DX009 (ip), vehicle: Klucel (hydroxypropylcellulose) (HPC)); 110 % of control and 93 % of control (dose: 50.0 mg/kg/injection, schedule: Q01DX009 (ip), vehicle: Klucel (hydroxypropylcellulose) (HPC)).

As to `CC1(C)OCC(C2OC3OC(C)(C)OC3C2NN)O1` (stereo not drawn), the T/C is, setting by setting: under setting [4], 95 % of control; under setting [5], 98 % of control; under setting [15], 100 % of control.

Take `COCCOc1cccc2c1C(=O)c1ccccc1C2=O`: the T/C is, setting by setting: under setting [4], 102 % of control; under setting [5], 91 % of control.

As to `CCOC(=O)c1ccc(NC(=O)CSc2nc3ccccc3o2)cc1`, the T/C by setting is: (dose: 50.0 mg/kg/injection, schedule: Q01DX009 (ip), vehicle: saline) 114 % of control; (dose: 100.0 mg/kg/injection, schedule: Q01DX009 (ip), vehicle: saline) 93 % of control.

`[N-]=[N+]=[N-]`: the T/C runs as follows: (dose: 3.0 mg/kg/injection, schedule: Q01DX009 (ip), vehicle: saline with Tween-80) 100 % of control; (dose: 6.0 mg/kg/injection, schedule: Q01DX009 (ip), vehicle: saline with Tween-80) 105 % of control.

Turning to `COc1cccc2c1C(CCCC(=O)O)CCC2` (stereo not drawn), the T/C was 101 % of control under setting [1], 104 % of control under setting [2] and 104 % of control under setting [3].

Consider `COC(=O)c1cc(=O)nc(N/N=C/c2cc(OC)ccc2OC)s1`, for which the T/C runs as follows: under setting [4], 95 % of control; under setting [5], 94 % of control; under setting [15], 95 % of control.

Regarding `CS(=O)(=O)OCC1NC(=O)C(COS(C)(=O)=O)NC1=O` (stereo not drawn), the T/C was 106 % of control and 103 % of control (dose: 50.0 mg/kg/injection, schedule: Q01DX009 (ip), vehicle: other); 98 % of control and 103 % of control (dose: 100.0 mg/kg/injection, schedule: Q01DX009 (ip), vehicle: other); 107 % of control (dose: 200.0 mg/kg/injection, schedule: Q01DX009 (ip), vehicle: other); 103 % of control (dose: 400.0 mg/kg/injection, schedule: Q01DX009 (ip), vehicle: other).

For the compound `O=C1Cc2ccccc2C(=O)N1`, the T/C is 100 % of control (dose: 100.0 mg/kg/injection, schedule: Q04DX003 (ip), vehicle: saline with Tween-80) and 95 % of control under setting [12].

On to `CCCCCCC(=O)/C=C/c1cc(OC)cc(OC)c1`, for which the T/C reads like this: under setting [9], 96 % of control; under setting [10], 103 % of control; under setting [11], 91 % of control.

`Cc1cc(N(C)C)nc2cc(N(C)C)ccc12`: the T/C runs as follows: (dose: 12.5 mg/kg/injection, schedule: Q01DX009 (ip), vehicle: saline with Tween-80) 93 % of control; (dose: 25.0 mg/kg/injection, schedule: Q01DX009 (ip), vehicle: saline with Tween-80) 103 % of control; under setting [9], 95 % of control and 98 % of control.

`O=C(N=[N+]([O-])c1ccccc1)c1ccccc1`: the T/C is 107 % of control (dose: 3.12 mg/kg/injection, schedule: Q01DX001 (ip), vehicle: saline with Tween-80); 110 % of control (dose: 6.25 mg/kg/injection, schedule: Q01DX001 (ip), vehicle: saline with Tween-80); 109 % of control and 118 % of control (dose: 6.25 mg/kg/injection, schedule: Q04DX003 (ip), vehicle: saline with Tween-80); 99 % of control (dose: 12.5 mg/kg/injection, schedule: Q01DX001 (ip), vehicle: saline with Tween-80); 114 % of control and 117 % of control (dose: 12.5 mg/kg/injection, schedule: Q04DX003 (ip), vehicle: saline with Tween-80); 89 % of control and 95 % of control under setting [8].

For `O=C(O)C1CCC(=O)N1Cc1csc(-c2ccccc2)n1` (stereo not drawn), the T/C is, setting by setting: under setting [7], 103 % of control; under setting [13], 93 % of control; under setting [14], 99 % of control.
